US11041000B2, “Peptide inhibitors of interleukin-23 receptor and their use to treat inflammatory diseases” (priority 2019, dated 2021)
Bridge positions count the residues as written; N and C are the ends. Square brackets hold non-standard residues; d marks the D form. Peptide text beside a SMILES is read from it. Trp(7-Me) = Cc1cccc2c(C[C@H](N)C(=O)O)c[nH]c12; Trp(2-Me) = Cc1[nH]c2ccccc2c1C[C@H](N)C(=O)O; 2Nal = N[C@@H](Cc1ccc2ccccc2c1)C(=O)O; AEF = NCCOc1ccc(C[C@H](N)C(=O)O)cc1; Cit = NC(=O)NCCC[C@H](N)C(=O)O; αMeL = CC(C)C[C@](C)(N)C(=O)O; Pen = CC(C)(S)[C@H](N)C(=O)O; αMeK = C[C@](N)(CCCCN)C(=O)O; βAla = NCCC(=O)O

How the values were obtained:
[1] = Stability in cynomolgus monkey fecal homogenate; assay type: in vitro ADME; conditions: 20% fecal homogenate (supernatant), pH 6.8, 20% cynomolgus monkey fecal homogenate, anaerobic, 37° C., read-out: t½: Monkey Feces anaerobic (converted)
Protocol: (§1) Centrifuged the homogenate at 2800×g for 15 min. The supernatant is taken out and used for incubations. […] The final test compound concentration was 20 μM.

[2] = target: IL-23R-expressing DB cells (Homo sapiens, UniProt Q5VWK5); assay: DB cells IL23R pSTAT3 cell assay (pStat3HTRF); assay type: cell-based; conditions: DB cells stimulated with IL-23 0.5 nM, 30 minutes, phospho-STAT3 in cell lysates; read-out: pStat3 HTRF
Sequence of IL-23R-expressing DB cells (Q5VWK5 24-629 limits assumed): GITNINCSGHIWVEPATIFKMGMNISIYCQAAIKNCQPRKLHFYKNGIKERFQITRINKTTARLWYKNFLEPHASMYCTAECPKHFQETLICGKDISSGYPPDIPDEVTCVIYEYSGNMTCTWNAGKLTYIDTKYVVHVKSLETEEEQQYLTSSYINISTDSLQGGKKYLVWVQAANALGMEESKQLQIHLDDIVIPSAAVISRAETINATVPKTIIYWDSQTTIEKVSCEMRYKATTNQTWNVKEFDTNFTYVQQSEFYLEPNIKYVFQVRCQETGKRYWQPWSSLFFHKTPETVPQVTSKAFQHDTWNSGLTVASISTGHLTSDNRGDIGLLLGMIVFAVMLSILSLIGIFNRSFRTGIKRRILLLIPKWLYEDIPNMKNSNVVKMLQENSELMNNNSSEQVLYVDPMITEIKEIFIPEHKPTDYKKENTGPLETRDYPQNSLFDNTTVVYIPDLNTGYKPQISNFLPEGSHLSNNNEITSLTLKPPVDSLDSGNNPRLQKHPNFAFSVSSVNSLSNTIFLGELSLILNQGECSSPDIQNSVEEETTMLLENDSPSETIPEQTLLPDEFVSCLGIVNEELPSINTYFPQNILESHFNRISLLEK
Description: Human ELISA indicates the IL23-IL23R competitive binding assay described below, Rat ELISA indicates the rat IL-23R competitive binding ELISA assay described below, and pStat3HTRF indicates the DB cells IL-23R pSTAT3 cell assay described below. The peptides depicted in Table E1 are cyclized via a disulfide bridge formed between two Pen residues in these peptides. The peptides depicted in Table E2 are cyclized via a thioether bond between the indicated amino acid residues. Table E2 provides an illustrative structure depicting thioether cyclization, which is indicated in the table by the term “cyclo,” with the cyclic region bracketed immediately following the term “cyclo.” For certain peptides, the residue Abu is present where indicated, whereas in other embodiments, e.g., those related to the non-cyclized form, the Abu may be referred to as a hSer(Cl) or homoSer residue. The petpides depicted in Table E3 are cyclized via a disulfide bridge formed between two Pen residues or a thioether bond between Abu and Cys.
IL-23 plays a central role in supporting and maintaining Th17 differentiation in vivo. This process is thought to be mediated primarily through the Signal Transducer and Activator of Transcription 3 (STAT3), with phosphorylation of STAT3 (to yield pSTAT3) leading to upregulation of RORC and pro-inflammatory IL-17. This cell assay examines the levels of pSTAT3 in IL-23R-expressing DB cells when stimulated with IL-23 in the presence of test compounds. Serial dilutions of test peptides and IL-23 (Humanzyme #HZ-1261) at a final concentration of 0.5 nM, were added to each well in a 96 well tissue culture plate (Corning #CLS3894). DB cells (ATCC #CRL-2289), cultured in RPMI-1640 medium (Thermo Scientific #11875093) supplemented with 10% FBS, were added at 5×10E5 cells/well and incubated for 30 minutes at 37° C. in a 5% CO2 humidified incubator. Changes in phospho-STAT3 levels in the cell lysates were detected using the Cisbio HTRF pSTAT3 (Tyr705) Cellular Assay Kit (Cisbio #62AT3PEH), according to manufacturer's Two Plate Assay protocol.

[3] = Stability in human fecal homogenate; assay type: in vitro ADME; conditions: 20% fecal homogenate (supernatant), pH 6.8, 20% human fecal homogenate, anaerobic, 37° C., read-out: t½: Human Feces anaerobic (converted)
Protocol: as §1

Stability in rat plasma = assay type: in vitro ADME; conditions: both sexes, SD rat plasma, EDTA, 37° C., read-out: t½: Rat Plasma EDTA (converted)
[4] = Stability in simulated intestinal fluid (SIF); assay type: in vitro ADME; conditions: simulated intestinal fluid with pancreatin, pH 6.8, 37° C., matrix is 100 fold dilution of standard SIF concentration; for half-life at 20 μM: read-out: SIF t½ (converted); for SIF t½: 20 μM

SMILES	half-life at 20 μM [1]	IC50 [2]	half-life at 20 μM ([1]; cynomolgus monkey)	half-life at 20 μM [3]	half-life at 20 μM (Stability in rat plasma)	half-life at 20 μM [4]	SIF t½ [4]
CC(=O)NCCCC[C@H](NC(=O)[C@](C)(CCCCN)NC(=O)[C@H](Cc1ccc2ccccc2c1)NC(=O)[C@H](Cc1ccc(OCCN)cc1)NC(=O)[C@H]1NC(=O)[C@H](CCC(N)=O)NC(=O)[C@H](Cc2c[nH]c3c(C)cccc23)NC(=O)[C@H]([C@@H](C)O)NC(=O)[C@H](CC(N)=O)NC(=O)[C@@H](NC(C)=O)C(C)(C)SSC1(C)C)C(=O)N[C@@H](CC(N)=O)C(=O)NCCC(N)=O [compound 202]	10 h	1.1 nM					
CC(=O)NCCCC[C@H](NC(=O)[C@](C)(CC(C)C)NC(=O)[C@H](Cc1ccc2ccccc2c1)NC(=O)[C@H](Cc1ccc(OCCN)cc1)NC(=O)[C@H]1NC(=O)[C@H](CCC(N)=O)NC(=O)[C@H](Cc2c[nH]c3c(C)cccc23)NC(=O)[C@H]([C@@H](C)O)NC(=O)[C@H](CC(N)=O)NC(=O)[C@@H](NC(C)=O)C(C)(C)SSC1(C)C)C(=O)N1CCC[C@H]1C(=O)NCCC(N)=O [compound 211]		178 nM	> 24 h	10 h			
CC(=O)NCCCC[C@H](NC(=O)[C@](C)(CC(C)C)NC(=O)[C@H](Cc1ccc2ccccc2c1)NC(=O)[C@H](Cc1ccc(OCCN)cc1)NC(=O)[C@H]1NC(=O)[C@H](CCC(N)=O)NC(=O)[C@H](Cc2c[nH]c3c(C)cccc23)NC(=O)[C@H]([C@@H](C)O)NC(=O)[C@H](CC(N)=O)NC(=O)[C@@H](NC(C)=O)C(C)(C)SSC1(C)C)C(=O)N[C@@H](C(=O)NCCC(N)=O)[C@H](C)O [compound 218]		11 nM	> 24 h	> 24 h	1 h		
CC(=O)NCCCC[C@H](NC(=O)[C@](C)(CC(C)C)NC(=O)[C@H](Cc1ccc2ccccc2c1)NC(=O)[C@H](Cc1ccc(OCCN)cc1)NC(=O)[C@H]1NC(=O)[C@H](CCCNC(N)=O)NC(=O)[C@H](Cc2c[nH]c3c(C)cccc23)NC(=O)[C@H]([C@@H](C)O)NC(=O)[C@H](CC(N)=O)NC(=O)[C@@H](NC(C)=O)C(C)(C)SSC1(C)C)C(=O)N[C@@H](CC(N)=O)C(=O)NCCC(N)=O [compound 227] (Ac-[Pen]NT[Trp(7-Me)][Cit][Pen][AEF][2Nal][αMeL]K(Ac)N[βAla]-NH2; disulfide 1-6)		0.702 nM	> 24 h	> 24 h			
CC(=O)NCCCC[C@H](NC(=O)[C@](C)(CCCCN)NC(=O)[C@H](Cc1ccc2ccccc2c1)NC(=O)[C@H](Cc1ccc(OCCN)cc1)NC(=O)[C@H]1NC(=O)[C@H](CCC(N)=O)NC(=O)[C@H](Cc2c[nH]c3c(C)cccc23)NC(=O)[C@H]([C@@H](C)O)NC(=O)[C@H](CC(N)=O)NC(=O)[C@@H](NC(C)=O)C(C)(C)SSC1(C)C)C(=O)N[C@@H](CC(N)=O)C(=O)NCCC(N)=O [compound 267]		0.506 nM		> 24 h	> 24 h		
CC(=O)NCCCC[C@H](NC(=O)C1(NC(=O)[C@H](Cc2ccc3ccccc3c2)NC(=O)[C@H](Cc2ccc(OCCN)cc2)NC(=O)[C@H]2NC(=O)[C@H](CCC(N)=O)NC(=O)[C@H](Cc3c[nH]c4c(C)cccc34)NC(=O)[C@H]([C@@H](C)O)NC(=O)[C@H](CC(N)=O)NC(=O)[C@@H](NC(C)=O)C(C)(C)SSC2(C)C)CCNCC1)C(=O)N[C@@H](CC(N)=O)C(=O)NCCC(N)=O [compound 275]		2.17 nM	8 h	> 24 h	> 24 h		
CC(=O)NCCCC[C@@H]1NC(=O)[C@H](Cc2c[nH]c3c(C)cccc23)NC(=O)[C@H]([C@@H](C)O)NC(=O)[C@H](CC(N)=O)NC(=O)[C@@H](NC(C)=O)C(C)(C)SSC(C)(C)[C@@H](C(=O)N[C@@H](Cc2ccc(OCCN)cc2)C(=O)N[C@@H](Cc2ccc3ccccc3c2)C(=O)N[C@@](C)(CCCCN)C(=O)N[C@@H](CCCCNC(C)=O)C(=O)N[C@@H](CO)C(=O)N[C@H](CCCCN)C(N)=O)NC1=O [compound 352]	> 24 h			> 24 h	> 24 h	7 h	
CC(=O)NCCCC[C@@H]1NC(=O)[C@H](Cc2c[nH]c3c(C)cccc23)NC(=O)[C@H]([C@@H](C)O)NC(=O)[C@H](CC(N)=O)NC(=O)[C@@H](NC(C)=O)C(C)(C)SSC(C)(C)[C@@H](C(=O)N[C@@H](Cc2ccc(OCCN)cc2)C(=O)N[C@@H](Cc2c(C)[nH]c3ccccc23)C(=O)N[C@@](C)(CCCCN)C(=O)N[C@@H](CCCCNC(C)=O)C(=O)N[C@@H](CC(N)=O)C(=O)N[C@H](CCCCN)C(N)=O)NC1=O [compound 353] (Ac-[Pen]NT[Trp(7-Me)]K(Ac)[Pen][AEF][Trp(2-Me)][αMeK]K(Ac)N[dK]-NH2; disulfide 1-6)	> 24 h			> 24 h	> 24 h		24 h
CC(=O)NCCCC[C@@H]1NC(=O)[C@H](Cc2c[nH]c3c(C)cccc23)NC(=O)[C@H]([C@@H](C)O)NC(=O)[C@H](CC(N)=O)NC(=O)[C@@H](NC(C)=O)C(C)(C)SSC(C)(C)[C@@H](C(=O)N[C@@H](Cc2ccc(OCCN)cc2)C(=O)N[C@@H](Cc2ccc3ccccc3c2)C(=O)N[C@@](C)(CC(C)C)C(=O)N[C@@H](CCCCNC(C)=O)C(=O)N[C@@H](CC(N)=O)C(=O)N[C@H](CC(N)=O)C(N)=O)NC1=O [compound 354]	> 24 h			> 24 h	7 h	11 h	
CC(=O)NCCCC[C@@H]1NC(=O)[C@H](Cc2c[nH]c3c(C)cccc23)NC(=O)[C@H]([C@@H](C)O)NC(=O)[C@H](CC(N)=O)NC(=O)[C@@H](NC(C)=O)C(C)(C)SSC(C)(C)[C@@H](C(=O)N[C@@H](Cc2ccc(OCCN)cc2)C(=O)N[C@@H](Cc2ccc3ccccc3c2)C(=O)N[C@@](C)(CCCCN)C(=O)N[C@@H](CCCCNC(=O)[C@H](C)N)C(=O)N[C@@H](CC(N)=O)C(=O)N[C@H](CC(C)C)C(N)=O)NC1=O [compound 355]	> 24 h			12 h	> 24 h	8 h	
CC(=O)NCCCC[C@@H]1NC(=O)[C@H](Cc2c[nH]c3c(C)cccc23)NC(=O)[C@H]([C@@H](C)O)NC(=O)[C@H](CC(N)=O)NC(=O)[C@@H](NC(C)=O)C(C)(C)SSC(C)(C)[C@@H](C(=O)N[C@@H](Cc2ccc(OCCN)cc2)C(=O)N[C@@H](Cc2ccc3ccccc3c2)C(=O)N[C@@](C)(CCCCN)C(=O)N[C@@H](CCCCNC(=O)CC(C)C)C(=O)N[C@@H](CC(N)=O)C(=O)N[C@H](CC(C)C)C(N)=O)NC1=O [compound 356]	> 24 h			> 24 h	> 24 h	10 h	
CC(=O)NCCCC[C@@H]1NC(=O)[C@H](Cc2c[nH]c3c(C)cccc23)NC(=O)[C@H]([C@@H](C)O)NC(=O)[C@H](CC(N)=O)NC(=O)[C@@H](NC(C)=O)C(C)(C)SSC(C)(C)[C@@H](C(=O)N[C@@H](Cc2ccc(OCCN)cc2)C(=O)N[C@@H](Cc2ccc3ccccc3c2)C(=O)N[C@@](C)(CCCCN)C(=O)N[C@@H](CCCCNC(=O)CC(F)(F)F)C(=O)N[C@@H](CC(N)=O)C(=O)N[C@H](CC(C)C)C(N)=O)NC1=O [compound 360]	> 24 h			> 24 h	> 24 h		24 h
CCCCC(=O)NCCCC[C@H](NC(=O)[C@](C)(CCCCN)NC(=O)[C@H](Cc1ccc2ccccc2c1)NC(=O)[C@H](Cc1ccc(OCCN)cc1)NC(=O)[C@H]1NC(=O)[C@H](CCCCNC(C)=O)NC(=O)[C@H](Cc2c[nH]c3c(C)cccc23)NC(=O)[C@H]([C@@H](C)O)NC(=O)[C@H](CC(N)=O)NC(=O)[C@@H](NC(C)=O)C(C)(C)SSC1(C)C)C(=O)N[C@@H](CC(N)=O)C(=O)N[C@H](CC(C)C)C(N)=O [compound 361]	> 24 h			> 24 h	> 24 h		24 h
